Key:
[1] = Pharmacokinetic study of DAPB in rats (plasma, UPLC–MS/MS); assay type: in vivo, Sprague–Dawley (SD) rats
Method: Sprague–Dawley (SD) rats (180–200 g) were purchased from the Experimental Animal Center of Xi’an Jiaotong University (permit number SCXK 2017–003) and housed under controlled conditions (25 °C, 50 ± 5% humidity, and 12 h dark–light cycles). The animal protocol was approved by the Animal Ethics Committee of Xi’an Medical College. […] For the intravenous administration group, DAPB prepared in saline containing 5% DMSO was injected in the tail vein at a dose of 6 mg/kg. For the oral administration group, rats were given DAPB dissolved in 10% (2-hydroxypropyl)-β-cyclodextrin in water (10% HP-β-CD solution) containing 20% PEG200 and 20% propylene glycol at a dose of 30 mg/kg orally. Blood samples were collected in heparinized tubes pretreated with NaF via the ophthalmic venous plexus before and at 0.083, 0.17, 0.25, 0.50, 1.00, 2.00, 4.00, and 8.00 h after dosing. After centrifugation, the supernatant plasma was obtained and stored at −80 °C for further treatment. For the preparation of the plasma samples, 10 μL of the IS working solution (1 μg/mL), 1 μL of NaF (5 mg/mL), and 290 μL of acetonitrile were added to 100 μL of the plasma samples. Subsequently, the mixed plasma samples were centrifuged twice at 16,000× g for 5 min at 4 °C after vortexing for 30 s. For analysis, 10 μL of the supernatant was injected into the UPLC–MS/MS apparatus.

[2] = Stability of DAPB in rat plasma (NaF added); assay type: in vitro ADME; settings: for Stability RE (%): n = 6
Method: Esterase widely exists in the blood, serum, and plasma of organisms. Therefore, DAPB may be unstable and easily hydrolyzed by plasma esterases owning to the ester group. In the method-development process, the stability of DAPB in whole blood and plasma was tested in detail. Low temperature is an important factor for maintaining the stability of the analyte; therefore, in our study, an ice-water bath was used to provide cooling conditions. Sodium fluoride (NaF), a typical esterase inhibitor, was pre-added in the collected blood samples to prevent the hydrolysis of DAPB. In the plasma with NaF added, DAPB was stable after being placed at room temperature for 4 h, −80 °C for 30 days, and then subject to three freeze/thaw cycles. In addition, the post-preparative plasma sample stored in an autosampler for 24 h remained stable.
The stability of DAPB in rat plasma was assessed by using QC samples at three concentrations in six replicates following three freeze/thaw cycles, short-term storage (room temperature for […]), long-term storage (−80 °C for 30 consecutive days), and autosampler rack storage (4 °C for 24 h). In freeze/thaw cycle tests, the QC samples were frozen and stored at −80 °C and then thawed at room temperature; this was repeated three times. The values of stability were calculated by comparing the concentrations of the QC samples following each storage period with the concentrations of the freshly prepared QC samples in the same analytical run.

SHR rats = system: SHR rats; set-up: method as in PMID 37446639; settings: cited from earlier work
[3] = Sprague-Dawley, rat plasma, intravenous administration at 6 mg/kg, mean ± SD (n = 6)
[4] = Sprague-Dawley, rat plasma, oral administration at 30 mg/kg, mean ± SD (n = 6)
[5] = rat plasma, oral administration at 30 mg/kg, mean ± SD (n = 6)

- bioavailability ([1]; Sprague-Dawley, plasma, rat, oral 30 mg/kg vs intravenous 6 mg/kg): 78.2%
- AUC(0-inf) [1, 3]: 13.8 ± 2.1 ng·h/mL
- AUC(0-t) [1, 3]: 11.8 ± 1.66 ng·h/mL
- half-life [1, 3]: 11.4 ± 0.6 min
- Vd ([1]; Sprague-Dawley, rat plasma, intravenous administration at 6 mg/kg, mean ± SD (n = 6), read-out: Vss): 910 ± 24.4 L/kg
- AUC(0-inf) [1, 4]: 53.9 ± 8.34 ng·h/mL
- AUC(0-t) [1, 4]: 49.6 ± 7.92 ng·h/mL
- Cmax [1, 4]: 33.2 ± 10.9 ng/mL
- Tmax [1, 4]: 14.7 min
- half-life [1, 4]: 97.8 ± 21.6 min
- CL [1, 5]: 89,992.36 ± 10,292.61 mL/h/kg
- Vss [1, 5]: 264.73 ± 65.86 L/kg
- Stability RE (%) ([2]; post-preparative rat plasma sample, autosampler rack (4 °C) for 24 h, spiked conc. 5 ng/mL): −11.6%
- Stability RE (%) ([2]; post-preparative rat plasma sample, autosampler rack (4 °C) for 24 h, spiked conc. 500 ng/mL): −7.4%
- Stability RE (%) ([2]; post-preparative rat plasma sample, autosampler rack (4 °C) for 24 h, spiked conc. 1000 ng/mL): −3.4%
- Stability RE (%) ([2]; rat plasma, room temperature for 2 h, spiked conc. 5 ng/mL): −10.2%
- Stability RE (%) ([2]; rat plasma, room temperature for 2 h, spiked conc. 500 ng/mL): −7.5%
- Stability RE (%) ([2]; rat plasma, room temperature for 2 h, spiked conc. 1000 ng/mL): 1.2%
- Stability RE (%) ([2]; rat plasma, three freeze/thaw cycles, spiked conc. 5 ng/mL): −6.4%
- Stability RE (%) ([2]; rat plasma, three freeze/thaw cycles, spiked conc. 500 ng/mL): 2.6%
- Stability RE (%) ([2]; rat plasma, three freeze/thaw cycles, spiked conc. 1000 ng/mL): −2.0%
- Stability RE (%) ([2]; rat plasma, −80 °C for 30 days, spiked conc. 5 ng/mL): 5.3%
- Stability RE (%) ([2]; rat plasma, −80 °C for 30 days, spiked conc. 500 ng/mL): −6.2%
- Stability RE (%) ([2]; rat plasma, −80 °C for 30 days, spiked conc. 1000 ng/mL): −4.6%
- Stability in plasma with NaF added (in words) ([2]; room temperature for 4 h, −80 °C for 30 days, three freeze/thaw cycles): stable
SMILES: C[C@@H](NC(=O)C(O)Cc1ccc(O)c(O)c1)C(=O)N1CCC[C@H]1C(=O)OC1CC2CCC1(C)C2(C)C (stereo partly drawn) [DAPB, (2R)-3-(3,4-dihydroxyphenyl)-2-hydroxypropionyl-L-alanyl-L-proline bornyl ester]
- Decrease of diastolic blood pressure (DBP) (SHR rats): 35 mmHg
- Decrease of systolic blood pressure (SBP) (SHR rats): 50 mmHg

Reference: article PMC10818329, “An Ultra-Performance Liquid Chromatography–Tandem Mass Spectrometry (UPLC–MS/MS) Method for Qualifying DAPB in Rat Plasma and Application to Pharmacokinetic Studies” (Molecules, 2024)
